The values that follow come from US9440914B2, “Method for treating glioblastomas and other tumors” (THE FEINSTEIN INSTITUTE FOR MEDICAL RESEARCH, priority 2013, dated 2016).

For data set [1] the following is noted: phase II clinical trial for Crohn's disease; cited from earlier work.
Data set [2] relates to SK-NEP1 cells with M2 macrophages. As to the kind of experiment: invasion assay of SK-NEP1 co-cultured with polarized primary macrophages. In kind it is cell-based, human. Conditions: co-culture with M2 macrophages, p<0.01. The procedure: FIG. 7. CNI-1493 inhibits tumor invasion in vitro through in the presence of macrophages. When co-cultured with SK-NEP1, macrophages polarized to express the M2 phenotype induced increased tumor cell invasion. This increase in invasion was reversed when co-cultures were exposed to 200 nM CNI-1493. Error bars represent standard deviation.
In vivo, human ES cells (SK-NEP1) were surgically implanted into the left kidney of athymic mice. Mice were treated for 7 weeks with CNI-1493 or vehicle. Lung parenchyma was assessed for metastases utilizing both H&E and immunohistochemistry for the ES-specific CD99 and endothelial-specific CD31 markers. In vitro, primary macrophages isolated from human blood were polarized to M1 or M2 phenotypes by exposure to GM-CSF or M-CSF and activated with IFN-γ and LPS or IL-4. Cells were co-cultured with polarized macrophages and underwent proliferation and invasion assays in the presence or absence of CNI-1493.

For data set [3], the system named is GL261 tumors. In words: orthotopic GL261 glioblastoma model in syngeneic C57Bl/6 mice, intracranial delivery by osmotic pump. In kind it is in vivo, C57BL/6J mice. As to the method: Animal Experiments: All procedures involving mice were conducted in accordance with the National Institutes of Health regulations concerning the use and care of experimental animals. The study of mice was approved by the Institutional Animal Care and Use Committee (IACUC) of the Feinstein Institute. First, 8 week old male C57BL/6J mice were inoculated in the right caudate putamen with GL261 cells. Briefly, animals were placed in a stereotactic frame after pre-anesthesia exposure in a box of 5% isoflurane. Deep anesthesia was maintained on the frame at approximately 2% isoflurane and 2% O2. A burr hole was drilled 1 mm anterior and 2.5 mm to the right of the bregma. With the aid of the stereotactic frame, GL261 cells (2×10^4 cells suspended in 1 μL) were injected with a Hamilton syringe at a depth of 3 mm over a one min time period. Subsequently, the syringe was left in place for 1 min to prevent reflux.
Seven days after implantation of the GL261 cells, an osmotic pump (Alzet, Durect) filled with either 0.42 mg/ml solution of semapimod or vehicle was implanted in a subcutaneous pocket on the dorsal flank of the animal. A catheter with attached cannula delivered the drug intracranially over a period of 2 weeks, at a steady rate of 0.25 μl/h, which is equivalent to a dose of […], assuming no blood-brain barrier permeability of the drug. Starting one day after pump implantation, animals were given 2 Gy whole brain irradiation every other day over a period of 10 days (10 Gy total).
Brains from mice-bearing tumors were frozen on dry ice and stored at −80° C. until processing. The brain was sliced using a cryostat at −20° C. at a thickness of 40 μm (for tumor sizing) or 8 μm for immunohistochemistry. Slices were placed on pre-coated poly-1-lysine slides (Superfrost, Fisher) and fixed in 3.7% formaldehyde in PBS. Sections were stained with Harris-modified haematoxilin solution. Activated microglia were visualized with an Iba1 antibody (Wako). Tumor cell invasion was determined by counting the number of Ki67 (Millipore) positive nuclei located beyond the tumor border. The border was outlined by determining where the bulk of the tumor material was found by Ki67 staining Tumor size was determined as the area of the largest cross section of the tumor, multiplied by the depth of the tumor.
The cell density of the tumor was calculated by counting the total number of cells in 10 fields taken over different sections and multiplying the tumor area by the thickness of the slice (8 μm) to obtain total number of cells in a tumor section. This was then divided by the volume of the tumor section to obtain the number of cells per unit volume. To obtain the total number of cells in a tumor, the cell density was multiplied by the calculated volume of the tumor.
Animals were inoculated with 2×10^4 GL261 cells into the right caudate putamen. To deliver semapimod, an osmotic pump was used that was implanted subcutaneously in the dorsal flank of the animal and fed a transcranial cannula that was inserted into the tumor. In order to mimic a therapeutic setting, tumors were allowed to develop for 1 week before the onset of treatment. To score tumor cell invasion, brain sections were probed for the presence of proliferative antigen Ki67. […] Whereas control tumors display diffuse edges and extensive tumor cell invasion into the surrounding parenchyma, semapimod-treated tumors have a sharply demarcated border (FIG. 4A).

The test system of data set [4] is GL261 cells. As to the kind of experiment: colony formation assay of GL261 with or without microglia and irradiation. In kind it is cell-based, murine. The conditions noted are these: 200 nM; for effect on microglia-stimulated GL261 survival (colony formation): co-culture with microglia. The procedure:
Colony Formation Assay: G1261 cells and microglia were labeled as described for the invasion assay and were co-cultured in serum overnight and then changed to serum free medium for 48 h in the absence of serum at a 1:1 ratio at a density of 5×10^5 per well of a 6-well plate in the presence or absence of 200 nM semapimod. Subsequently, cells were subjected to 3 Gy of X-ray irradiation using a Radionics 160 kV irradiator. Two days after irradiation, cells were trypsinized, counted using a fluorescence microscope and 500 GL261 cells were plated in 6 cm dishes containing 10% FBS MSFM medium. Colony formation was allowed to proceed for 12 days, with medium changes every other day. Subsequently, the cells were fixed in 3.7% formaldehyde in PBS and stained with 0.2% (w/v) sulpharhodamine B (SRB) dye in 1% acetic acid for 20 min. The dishes were washed with 1% glacial acetic acid and allowed to dry. Plates were scanned and processed using Photoshop 5 (Adobe). Images were changed to grayscale and background threshold intensity was set. Colonies were counted automatically by Image J (rsbweb.nih.gov/ij/) and the numbers graphed.
Semapimod inhibits microglia-stimulated glioblastoma cell survival: A critical problem of malignant glioblastoma is its strong resistance to ionizing radiation (IR) and other therapeutic modalities (21). The role of microglia in glioblastoma cell survival has not been studied thus far. It was therefore examined whether microglia can enhance the survival of GL216 cells after IR and whether semapimod interferes with this function. GL261 cells were plated either in the presence or absence of microglia with or without semapimod (200 nM) for 2 days, followed by radiation treatment (3 Gy). Two days later, glioblastoma cell viability was assayed using a standard colony formation assay. […] In the presence of radiation, the stimulatory effect of microglia on glioblastoma cell survival is more marked (50%) and this effect is also abolished by semapimod (FIG. 2B).

The mark [5] stands for this setting: two weeks after tumor cell inoculation.

Consider `C/C(=N\NC(=N)N)c1cc(NC(=O)CCCCCCCCC(=O)Nc2cc(/C(C)=N/NC(=N)N)cc(/C(C)=N/NC(=N)N)c2)cc(/C(C)=N/NC(=N)N)c1` [semapimod], for which the tolerability in humans entry in data set [1] is reported as “very well tolerated”. In data set [2], the “effect on M2 macrophage-enhanced ES cellular invasion” value was “strongly decreased”. In data set [3] (absence of radiation, controls 20 days, not significant), the median survival was found to be 22 days. Also, the “number of Iba1+ microglia per tumor area” value in data set [3] (equivalent to 6 mg/kg/day intracranially, 1 week) is “No significant difference”. In data set [3] (equivalent to 6 mg/kg/day intracranially, 1 week, start 7 days after inoculation), the “inhibition of tumor cell invasion in vivo (Ki67-positive cells beyond tumor border)” value is given as “more than 75%”. Moreover, in data set [3] (setting [5]), the tumor cell density entry is given as “small but significant increase” and the “tumor size (volume)” value is reported as “robust inhibition”. For the same molecule, the “estimated total number of cells in tumor” value in data set [3] (two weeks after tumor cell inoculation, versus control tumors) is “significantly less”. For the same molecule, in data set [3] (with 10 Gy fractionated whole brain irradiation), the “tumors by histological analysis in surviving animals” value is on record as “no detectable tumors”. Moreover, in data set [3] (with 10 Gy fractionated whole brain irradiation, most of the animals), the “survival beyond the median survival time of control animals” value was “at least 40 days”. For the same molecule, the “effect on microglia-stimulated GL261 survival (colony formation)” value in data set [4] (3 Gy radiation) was “abolished”. Further, the “effect on microglia-stimulated GL261 survival (colony formation)” value in data set [4] (absence of radiation) is recorded as “abolishes”. For the same molecule, in data set [4] (no microglia), the “effect on survival potential of glioblastoma cell monocultures” value was “does not affect”.
